This is an account of results in patent publication US9365572B2, “PI3K and/or mTOR inhibitor” (XUANZHU PHARMA CO., LTD., priority 2012, dated 2016).

Structures are written as SMILES.

The subject of one test is U87MG. The test is described as follows: In vitro cytological inhibitory activity (XTT). The format is cell-based. Conditions: Homo sapiens, U-87 MG, 72 hrs. The protocol: U87MG: Human brain astrocytoblast cell line;
(§1) 1. Preparation of agents and compounds:
(§2) • 1.1 Preparation of phosphoric acid buffering solution (PBS): 8 g NaCl, 0.2 g KCl, 1.44 g Na2HPO4 and 0.24 g KH2PO4 were weighed and added to 800 mL ultrapure water. The mixture was adjusted to pH=7.4, and ultrapure water was added to the metered volume of IL. Then the autoclaving was conducted for 20 mins. • 1.2 Preparation of XTT detection working solution: 100 mg (2,3-Bis-(2-methoxy-4-nitro-5-sulfophenyl)-2H-tetrazolium-5-carboxanilide); 2,3-bis(2-methoxy-4-nitro-5-sulfophenyl)-5-[(phenylamino)carbonyl]-2H-tetrazolium hydroxide (XTT) powder was weighed, and dissolved under protection from light 300 mL of phenol red-free and serum-free RPMI1640 culture, which had been warmed up to 50° C. The resulting mixture was filtered, packaged and used immediately or in one week. The complete process was conducted under protection from light. • 1.3 Preparation of the test compound • Preparation of the stock solution of the test compound: The test compound powder was dissolved in DMSO in a concentration of 10 mM. • Preparation of the gradiently diluted solution of the test compound: 10 mM of the stock solution of the test compound was successively and gradiently diluted with DMSO by 4 folds for 10 concentrations. […]
Background: Formazan colour is commonly taken as a measure of viable cells.

In the next test the target is Adenosine A2A (Homo sapiens (Human), UniProt P29274). The test is described as follows: Radioligand binding assay No. 200610. Conditions: test substance 10 μM, read-out: Inhibitory rate (%), Adenosine A2A.
Another test addresses Adrenergic α1A (Rattus norvegicus (Rat), UniProt P43140). The test is described as follows: Radioligand binding assay No. 203100. Conditions: test substance 10 μM, read-out: Inhibitory rate (%), Adrenergic α1A.
The next test concerns the target Adrenergic α1B (Rattus norvegicus (Rat), UniProt P15823). The test is described as follows: Radioligand binding assay No. 203200. Conditions: test substance 10 μM, read-out: Inhibitory rate (%), Adrenergic α1B.
The target of another test is Adrenergic β1 (Homo sapiens (Human), UniProt P08588). The test is described as follows: Radioligand binding assay No. 204010. Conditions: test substance 10 μM, read-out: Inhibitory rate (%), Adrenergic β1.
The target of another test is Bradykinin B1 (Homo sapiens (Human), UniProt P46663). The test is described as follows: Radioligand binding assay No. 212510. Conditions: test substance 10 μM, read-out: Inhibitory rate (%), Bradykinin B1.
Test [1] concerns Calcium Channel L-Type, Benzothiazepine. The test is described as follows: Radioligand binding assay No. 214510. Conditions: test substance 10 μM; rat.
The next test addresses Endothelin ETB (Homo sapiens (Human), UniProt P24530). The test is described as follows: Radioligand binding assay No. 224110. Conditions: test substance 10 μM, read-out: Inhibitory rate (%), Endothelin ETB.
The test system of the next test is GABAA, Muscimol, Central. The test is described as follows: Radioligand binding assay No. 226500. Conditions: test substance 10 μM; rat.
The target in the next test is GABAB1A (Homo sapiens (Human), UniProt Q9UBS5). The test is described as follows: Radioligand binding assay No. 228610. Conditions: test substance 10 μM, read-out: Inhibitory rate (%), GABAB1A.
For another test, the system named is Glutamate, Kainate. The test is described as follows: Radioligand binding assay No. 232700. Conditions: test substance 10 μM; rat.
A further test concerns the target Histamine H3 (Homo sapiens (Human), UniProt Q9Y5N1). The test is described as follows: Radioligand binding assay No. 239820. Conditions: test substance 10 μM, read-out: Inhibitory rate (%), Histamine H3.
The next test has as its target Melatonin MT1 (Homo sapiens (Human), UniProt P48039). The test is described as follows: Radioligand binding assay No. 251600. Conditions: test substance 10 μM, read-out: Inhibitory rate (%), Melatonin MT1.
A further test addresses Opiate κ(OP2, KOP) (Homo sapiens (Human), UniProt P41145). The test is described as follows: Radioligand binding assay No. 260210. Conditions: test substance 10 μM, read-out: Inhibitory rate (%), Opiate κ(OP2, KOP).
For a further test, the system named is Potassium Channel [KATP]. The test is described as follows: Radioligand binding assay No. 265600. Conditions: test substance 10 μM; Human.
The subject of a further test is Purinergic P2Y. The test is described as follows: Radioligand binding assay No. 268810. Conditions: test substance 10 μM; rat.
In the next test the test system is Transporter, GABA. The test is described as follows: Radioligand binding assay No. 226400. Conditions: test substance 10 μM; rat.
The subject of the next test is A498. The test is described as follows: In vitro cytological inhibitory activity (XTT). It counts as cell-based. Conditions: Homo sapiens, 72 hrs. How it is done: A498: Human renal carcinoma cell line.
as §1, §2

Adenosine A2A, sequence (P29274 whole entry): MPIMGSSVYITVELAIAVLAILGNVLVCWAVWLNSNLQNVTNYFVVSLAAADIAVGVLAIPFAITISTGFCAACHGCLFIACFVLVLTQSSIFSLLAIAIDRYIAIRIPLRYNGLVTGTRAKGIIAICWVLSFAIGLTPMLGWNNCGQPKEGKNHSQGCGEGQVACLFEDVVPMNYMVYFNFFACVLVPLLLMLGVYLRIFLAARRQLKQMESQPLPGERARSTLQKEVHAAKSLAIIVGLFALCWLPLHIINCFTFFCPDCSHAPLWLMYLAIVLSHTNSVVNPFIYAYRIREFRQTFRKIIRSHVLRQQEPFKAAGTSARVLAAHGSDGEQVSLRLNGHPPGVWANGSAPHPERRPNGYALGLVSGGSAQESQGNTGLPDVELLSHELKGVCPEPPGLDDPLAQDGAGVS
Opiate κ(OP2, KOP), sequence (P41145 whole entry): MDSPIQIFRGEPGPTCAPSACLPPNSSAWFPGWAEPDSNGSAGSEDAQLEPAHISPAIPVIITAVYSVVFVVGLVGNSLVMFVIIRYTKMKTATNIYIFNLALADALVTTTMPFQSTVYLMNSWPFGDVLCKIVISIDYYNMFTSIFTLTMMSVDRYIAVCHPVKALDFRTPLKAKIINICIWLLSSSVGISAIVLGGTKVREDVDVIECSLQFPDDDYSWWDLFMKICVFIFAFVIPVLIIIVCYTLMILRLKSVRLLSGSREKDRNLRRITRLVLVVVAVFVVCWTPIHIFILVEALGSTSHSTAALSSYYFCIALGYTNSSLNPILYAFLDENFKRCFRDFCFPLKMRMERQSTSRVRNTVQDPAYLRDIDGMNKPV
Bradykinin B1, sequence (P46663 whole entry): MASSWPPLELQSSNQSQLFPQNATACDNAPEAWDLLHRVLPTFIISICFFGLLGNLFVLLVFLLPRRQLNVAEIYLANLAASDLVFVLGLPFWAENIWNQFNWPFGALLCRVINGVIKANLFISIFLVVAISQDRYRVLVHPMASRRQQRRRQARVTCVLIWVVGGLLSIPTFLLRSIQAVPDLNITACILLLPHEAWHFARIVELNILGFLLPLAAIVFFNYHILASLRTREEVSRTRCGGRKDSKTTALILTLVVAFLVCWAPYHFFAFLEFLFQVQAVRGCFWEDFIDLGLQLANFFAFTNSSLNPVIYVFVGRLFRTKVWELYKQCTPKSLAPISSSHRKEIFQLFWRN
Adrenergic α1A, sequence (P43140 whole entry): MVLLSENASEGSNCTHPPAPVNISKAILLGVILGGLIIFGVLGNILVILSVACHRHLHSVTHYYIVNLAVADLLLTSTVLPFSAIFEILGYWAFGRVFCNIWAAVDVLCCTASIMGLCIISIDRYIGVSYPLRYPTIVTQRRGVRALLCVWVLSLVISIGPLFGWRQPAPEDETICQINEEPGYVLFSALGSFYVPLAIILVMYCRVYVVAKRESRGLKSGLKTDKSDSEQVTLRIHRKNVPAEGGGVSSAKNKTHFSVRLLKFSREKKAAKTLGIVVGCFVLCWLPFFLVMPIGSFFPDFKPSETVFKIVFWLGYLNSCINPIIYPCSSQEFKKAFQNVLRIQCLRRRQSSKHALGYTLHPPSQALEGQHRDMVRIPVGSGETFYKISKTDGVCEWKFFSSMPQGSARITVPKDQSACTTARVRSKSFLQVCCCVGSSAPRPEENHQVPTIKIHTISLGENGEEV
Adrenergic β1, sequence (P08588 whole entry): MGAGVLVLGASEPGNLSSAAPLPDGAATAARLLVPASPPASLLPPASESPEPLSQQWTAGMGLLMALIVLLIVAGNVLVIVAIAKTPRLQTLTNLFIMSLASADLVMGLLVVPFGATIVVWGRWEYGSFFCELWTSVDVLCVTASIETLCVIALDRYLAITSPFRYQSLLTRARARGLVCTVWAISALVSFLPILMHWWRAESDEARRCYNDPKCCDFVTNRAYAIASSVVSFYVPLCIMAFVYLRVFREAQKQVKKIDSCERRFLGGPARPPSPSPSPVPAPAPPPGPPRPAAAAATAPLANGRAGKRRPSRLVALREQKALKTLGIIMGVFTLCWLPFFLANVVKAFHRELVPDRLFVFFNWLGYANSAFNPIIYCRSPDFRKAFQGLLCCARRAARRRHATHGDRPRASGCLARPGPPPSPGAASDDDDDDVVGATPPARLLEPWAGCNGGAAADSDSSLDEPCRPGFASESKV
GABAB1A, sequence (Q9UBS5 15-961): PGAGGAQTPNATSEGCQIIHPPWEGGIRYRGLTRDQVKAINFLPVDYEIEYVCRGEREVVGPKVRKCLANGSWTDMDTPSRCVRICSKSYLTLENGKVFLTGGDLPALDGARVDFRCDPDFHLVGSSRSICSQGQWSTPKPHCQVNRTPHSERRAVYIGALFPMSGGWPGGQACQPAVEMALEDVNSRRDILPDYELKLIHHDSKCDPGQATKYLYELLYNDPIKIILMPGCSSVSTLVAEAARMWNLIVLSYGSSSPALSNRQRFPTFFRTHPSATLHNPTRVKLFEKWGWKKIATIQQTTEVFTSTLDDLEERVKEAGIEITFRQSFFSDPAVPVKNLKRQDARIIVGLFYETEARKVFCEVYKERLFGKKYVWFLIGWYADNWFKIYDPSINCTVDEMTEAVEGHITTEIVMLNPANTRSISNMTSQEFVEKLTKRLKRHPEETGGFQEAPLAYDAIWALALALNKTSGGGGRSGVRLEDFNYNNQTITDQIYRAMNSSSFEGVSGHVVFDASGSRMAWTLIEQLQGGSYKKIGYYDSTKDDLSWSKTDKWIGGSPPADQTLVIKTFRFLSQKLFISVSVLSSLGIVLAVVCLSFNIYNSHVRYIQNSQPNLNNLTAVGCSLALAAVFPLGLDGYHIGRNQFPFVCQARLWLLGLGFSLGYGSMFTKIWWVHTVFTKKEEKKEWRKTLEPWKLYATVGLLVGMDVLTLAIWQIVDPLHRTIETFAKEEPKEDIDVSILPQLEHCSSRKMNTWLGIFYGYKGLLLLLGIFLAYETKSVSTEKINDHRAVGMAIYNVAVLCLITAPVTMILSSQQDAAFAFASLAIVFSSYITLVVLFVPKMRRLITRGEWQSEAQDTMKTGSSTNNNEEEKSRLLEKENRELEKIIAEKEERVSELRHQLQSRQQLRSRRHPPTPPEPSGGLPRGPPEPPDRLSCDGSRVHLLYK
Histamine H3, sequence (Q9Y5N1 whole entry): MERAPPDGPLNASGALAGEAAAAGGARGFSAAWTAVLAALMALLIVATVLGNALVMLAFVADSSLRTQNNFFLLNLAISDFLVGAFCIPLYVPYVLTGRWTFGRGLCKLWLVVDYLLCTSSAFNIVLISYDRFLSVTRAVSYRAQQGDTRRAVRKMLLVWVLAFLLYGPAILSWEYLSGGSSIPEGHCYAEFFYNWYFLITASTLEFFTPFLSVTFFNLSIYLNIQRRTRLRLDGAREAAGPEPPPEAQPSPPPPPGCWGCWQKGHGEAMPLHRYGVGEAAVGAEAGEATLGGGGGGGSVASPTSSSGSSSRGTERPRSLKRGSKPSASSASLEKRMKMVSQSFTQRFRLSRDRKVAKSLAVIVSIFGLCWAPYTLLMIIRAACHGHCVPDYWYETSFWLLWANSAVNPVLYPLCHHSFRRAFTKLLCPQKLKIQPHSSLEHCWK
Adrenergic α1B, sequence (P15823 whole entry): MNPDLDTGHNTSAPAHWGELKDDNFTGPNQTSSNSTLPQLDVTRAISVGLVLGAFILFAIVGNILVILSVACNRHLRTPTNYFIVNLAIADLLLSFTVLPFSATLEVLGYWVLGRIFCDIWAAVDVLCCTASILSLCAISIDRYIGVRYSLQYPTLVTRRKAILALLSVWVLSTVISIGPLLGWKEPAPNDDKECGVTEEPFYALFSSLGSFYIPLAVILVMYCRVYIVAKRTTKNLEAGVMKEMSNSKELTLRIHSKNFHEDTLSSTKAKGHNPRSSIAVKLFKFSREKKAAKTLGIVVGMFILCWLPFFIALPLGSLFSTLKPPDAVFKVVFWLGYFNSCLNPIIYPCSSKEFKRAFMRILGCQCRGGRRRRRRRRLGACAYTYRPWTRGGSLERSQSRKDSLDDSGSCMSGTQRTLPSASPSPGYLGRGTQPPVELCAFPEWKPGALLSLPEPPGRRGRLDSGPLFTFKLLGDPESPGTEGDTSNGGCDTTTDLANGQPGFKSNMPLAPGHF
Endothelin ETB, sequence (P24530 27-442): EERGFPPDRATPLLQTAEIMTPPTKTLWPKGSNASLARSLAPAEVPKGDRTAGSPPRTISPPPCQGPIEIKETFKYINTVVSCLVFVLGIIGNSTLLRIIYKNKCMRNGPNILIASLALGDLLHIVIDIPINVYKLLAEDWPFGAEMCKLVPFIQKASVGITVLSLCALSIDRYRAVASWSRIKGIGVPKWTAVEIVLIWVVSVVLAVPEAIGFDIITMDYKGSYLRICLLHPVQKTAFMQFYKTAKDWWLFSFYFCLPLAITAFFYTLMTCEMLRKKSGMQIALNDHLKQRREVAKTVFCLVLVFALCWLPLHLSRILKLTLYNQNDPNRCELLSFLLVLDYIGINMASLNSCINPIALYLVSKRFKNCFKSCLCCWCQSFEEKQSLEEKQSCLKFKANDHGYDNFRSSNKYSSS
Melatonin MT1, sequence (P48039 whole entry): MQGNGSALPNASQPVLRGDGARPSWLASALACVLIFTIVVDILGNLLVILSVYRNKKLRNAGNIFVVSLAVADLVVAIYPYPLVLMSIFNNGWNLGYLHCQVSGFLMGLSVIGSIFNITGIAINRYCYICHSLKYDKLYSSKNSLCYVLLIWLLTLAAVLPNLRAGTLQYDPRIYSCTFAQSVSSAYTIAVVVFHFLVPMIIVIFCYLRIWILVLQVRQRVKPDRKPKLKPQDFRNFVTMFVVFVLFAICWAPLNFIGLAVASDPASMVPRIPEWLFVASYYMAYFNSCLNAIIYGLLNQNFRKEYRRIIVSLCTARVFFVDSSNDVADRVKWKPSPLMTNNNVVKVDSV

Broadly, the IC50 is the concentration at which inhibition is half-maximal. `O=c1[nH]c(=O)n(-c2cccc(C(F)(F)F)c2)c2c1cnc1ccc(-c3cnc4[nH]ccc4c3)nc12` [Compound 30, 9-(1H-pyrrolo[2,3-b]pyridin-5-yl)-1-(3-(trifluoromethyl)phenyl)pyrimido[5,4-c][1,5]naphthyridine-2,4(1H,3H)-dione]: the IC50 in the test with U87MG stood at 28.3 nM.

Take `Nc1ccc(-c2ccc3ncc4c(=O)[nH]c(=O)n(-c5cccc(C(F)(F)F)c5)c4c3n2)cn1` [Compound 5, 9-(6-aminopyridin-3-yl)-1-(3-(trifluoromethyl)phenyl)pyrimido[5,4-c][1,5]naphthyridine-2,4(1H,3H)-dione]: the inhibition at 10 µM on Adenosine A2A stood at 0%; at Adrenergic α1A, 13%; at Adrenergic α1B it was 21%; at Adrenergic β1 it was 0%; on Bradykinin B1 it was 0%; on Endothelin ETB it was 7%. The inhibition at 10 µM at GABAB1A stood at 15%; at Histamine H3, 16%; at Melatonin MT1, 17%; at Opiate κ(OP2, KOP), 10%. For the same compound, in [1], the “Inhibitory rate (%), Calcium Channel L-Type, Benzothiazepine” value is reported as 15%. Besides, the “Inhibitory rate (%), GABAA, Muscimol, Central” value in the test with GABAA, Muscimol, Central amounted to 18%. In addition, in the test on Glutamate, Kainate, the “Inhibitory rate (%), Glutamate, Kainate” value was found to be 35%. The “Inhibitory rate (%), Potassium Channel [KATP]” value in the test on Potassium Channel [KATP] is recorded as 11%. Moreover, in the test with Purinergic P2Y, the “Inhibitory rate (%), Purinergic P2Y” value is given as 9%. In addition, the “Inhibitory rate (%), Transporter, GABA” value in the test with Transporter, GABA stood at 12%. In addition, the midpoint of inhibition in the test on A498, the IC50, lay at 83.7 nM.
